Data: patent US12492194B2, “HPK1 inhibitors” (Janssen Pharmaceutica NV, priority 2019, dated 2025)

Legend:
Hpk1 = Hpk1 (Homo sapiens, UniProt Q92918); experiment: SLP76 phosphorylation assay (SLP76 pS376 in lysates of HEK293 cells engineered to express Hpk1 and SLP76); format: cell-based; conditions: HEK293 cells expressing Hpk1 and SLP76, 4 hours incubation; read-out: pSLP76 (HEK293) (pIC50) (converted)
Procedure: SLP76 Phosphorylation Assay
Hpk1 inhibition in cells was determined by detection of SLP76 phosphorylation at S376 in lysates from HEK293 cells engineered to express Hpk1 and SLP76. Serial dilutions of test compounds were prepared in cell culture medium and 20 μl was transferred into each well of a 96-well plate containing HEK293 cells in 180 μl of culture medium. After incubation for 4 hours at 37° C./5% CO2, the culture medium was removed, plates were put on ice and cells washed with cold Minimal Essential Medium before lysing in 90 μl of cold Mammalian Protein Extraction Reagent (Thermo Scientific, 78501) for 30 minutes on ice. The cell lysates were transferred to another 96-well plate, centrifuged 10 minutes at 3000 rcf (4° C.) and 30 μl transferred to a 96-well High-bind plate (MSD, L15XB-3). After coating overnight at 4° C., the cell lysate was removed, wells were washed with base buffer (TBS, 0.2% Tween-20), and blocking solution (base buffer containing 3% MSD blocker A) was added to each well for 1 hour at room temperature. The blocking solution was removed, the wells were washed with base buffer, and detection antibody (SLP76 pS376) was added in 25 μl base buffer containing 1% MSD blocker A to each well. After a 2 h incubation at room temperature, the detection antibody was removed, wells were washed four times with base buffer, 25 μl SULFO-TAG labeled goat anti-rabbit secondary antibody (MSD, R32AB-1) in base buffer containing 1% MSD blocker A was added to each well and left for 1 hour at room temperature. Wells were washed 4 times with base buffer, 150 μl Read Buffer T was added to each well, and the plates were read in a Mesoscale plate reader (MSD). IC50 values were determined by curve-fitting the electrochemiluminescent signals obtained from the lysates of HEK293 cells expressing Hpk1 and SLP76 treated with test compounds at various concentrations minus the signal obtained from HEK293 cells expressing SLP76 only.

full-length human Hpk1 = target: T1, full-length human Hpk1 (Homo sapiens, UniProt Q92918); experiment: HPK1 kinase assay (ADP Glo Kinase Assay); format: biochemical; conditions: full-length human GST-Hpk1, ADP Glo, 75 μM ATP; read-out: Hpk1 biochemical (pIC50) (converted)
T1 construct: A recombinant fusion protein consisting of full-length human Hpk1; GST (N)
T1 sequence (Q92918 whole entry, the tested form may be a part): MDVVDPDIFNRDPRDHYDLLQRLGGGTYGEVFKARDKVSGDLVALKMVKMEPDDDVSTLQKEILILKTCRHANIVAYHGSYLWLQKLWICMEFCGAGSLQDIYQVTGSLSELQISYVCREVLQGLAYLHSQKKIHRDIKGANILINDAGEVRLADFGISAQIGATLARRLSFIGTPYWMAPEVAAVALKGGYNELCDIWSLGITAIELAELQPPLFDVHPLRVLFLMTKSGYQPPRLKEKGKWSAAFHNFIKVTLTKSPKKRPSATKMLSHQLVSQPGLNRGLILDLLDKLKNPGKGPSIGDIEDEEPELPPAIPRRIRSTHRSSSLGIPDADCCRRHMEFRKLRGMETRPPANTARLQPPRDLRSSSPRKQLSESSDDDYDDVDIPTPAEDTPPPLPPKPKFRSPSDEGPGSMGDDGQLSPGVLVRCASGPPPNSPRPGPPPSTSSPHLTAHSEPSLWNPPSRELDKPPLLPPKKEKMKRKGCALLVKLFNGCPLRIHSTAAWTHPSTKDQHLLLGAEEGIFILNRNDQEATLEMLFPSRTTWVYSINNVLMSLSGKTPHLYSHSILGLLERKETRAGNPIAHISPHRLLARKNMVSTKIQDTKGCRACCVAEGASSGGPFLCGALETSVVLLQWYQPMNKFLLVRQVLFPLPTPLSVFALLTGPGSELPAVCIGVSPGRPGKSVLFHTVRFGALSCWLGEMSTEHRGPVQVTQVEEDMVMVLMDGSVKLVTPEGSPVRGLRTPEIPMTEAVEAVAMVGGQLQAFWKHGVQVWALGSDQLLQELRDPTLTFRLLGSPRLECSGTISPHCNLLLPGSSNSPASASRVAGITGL
Procedure: Pharmacological Part HPK1 Kinase Assay
A recombinant fusion protein consisting of full-length human Hpk1 with an N-terminal Glutatione S-transferase (GST) tag was produced in a baculovirus/insect cell expression system. GST-Hpk1 protein was purified from cell lysates by glutathione sepharose affinity chromatography. Kinase inhibition was determined using the ADP Glo™ Kinase Assay kit (Promega, V9101). Test compounds were prepared by serial dilution in dimethyl sulfoxide (DMSO) and 0.1 μl of each dilution was spotted onto a 384-well white Proxiplate (Perkin Elmer, 6008289). 8 μl of kinase assay buffer (40 mM Tris pH 7.5, 2 mM dithiothreitol (DTT), 0.05% Bovine Serum Albumin, 5 mM MgCl2) containing Hpk1 protein was transferred to each well and incubated for 30-45 minutes at room temperature. The enzymatic reaction was started by adding 2 μl of kinase assay buffer containing 75 μM ATP. After 120 minutes, the reaction was stopped by adding 3 μl of ADP Glo™ reagent (Promega, V9101) and incubating 45 minutes at room temperature.

Hpk1, sequence (Q92918 whole entry): as the sequence (Q92918 whole entry, the tested form may be a part) above

IC50 (Hpk1) | IC50 (full-length human Hpk1) | SMILES
676 nM | 8.13 nM | Nc1ncc(-c2ccc(C3CCOCC3)c([C@@H]3CCCN3)c2)cc1-c1ccnc(F)c1Cl [Co. 35]
692 nM | 7.94 nM | N#Cc1ccc(-c2cc(-c3ccc(C4CCOCC4)c([C@@H]4CCCN4)c3)cnc2N)cc1 [Co. 36]
1290 nM | 7.59 nM | Nc1ncc(-c2ccc(C3CCCCC3)c([C@@H]3CCCN3)c2)cc1-c1ccnc(F)c1 [Co. 38]
1100 nM | 8.91 nM | CC1(C)COc2ncc(-c3cc(-c4ccc(C5CCOCC5)c([C@@H]5CCCN5)c4)cnc3N)cc21 [Co. 40]
617 nM | 4.57 nM | Cn1cc(-c2nc(-c3ccc(C4CCOCC4)c([C@@H]4CCCN4)c3)cnc2N)cn1 [Co. 41]
339 nM | 9.33 nM | N#Cc1cc(-c2ccc(C3CCOCC3)c([C@@H]3CCCN3)c2)cnc1N [Co. 44]
1020 nM | 35.5 nM | CS(=O)(=O)N1CC=C(c2ccc(-c3cnc(N)c(-c4ccnc(F)c4)c3)cc2[C@@H]2CCCN2)CC1 [Co. 46]
1350 nM | 24.5 nM | CC(=O)N1CC=C(c2ccc(-c3cnc(N)c(-c4ccnc(F)c4)c3)cc2[C@@H]2CCCN2)CC1 [Co. 47]
1320 nM | 25.1 nM | Nc1ncc(-c2ccc(C3=CCSCC3)c([C@@H]3CCCN3)c2)cc1-c1ccnc(F)c1 [Co. 48]
2450 nM | 20 nM | Nc1ncc(-c2ccc(C3CCC(F)(F)CC3)c([C@@H]3CCCN3)c2)cc1-c1ccnc(F)c1 [Co. 50]
550 nM | 18.2 nM | CO[C@H]1CC[C@@H](c2ccc(-c3cnc(N)c(-c4ccnc(F)c4)c3)cc2[C@@H]2CCCN2)CC1 [Co. 51]
851 nM | 38.9 nM | Nc1ncc(-c2ccc(C3CC4(COC4)C3)c([C@@H]3CCCN3)c2)cc1-c1ccnc(F)c1 [Co. 52]
977 nM | 15.8 nM | Nc1ncc(-c2ccc(C3CCOCC3)c([C@@H]3CCCN3)c2)nc1C(F)(F)F [Co. 53]
> 10000 nM | 457 nM | Nc1ncc(-c2ccc(C3COC3)c([C@@H]3CCCN3)c2)cc1-c1ccnc(F)c1 [Co. 54]
1070 nM | 31.6 nM | Nc1ncc(-c2ccc(C3CCOCC3)c([C@@H]3CCCN3)c2)cc1-c1ccc(F)cc1 [Co. 62]
> 10000 nM | 85.1 nM | Nc1ncc(-c2ccc(C3CCOCC3)c(C3CCCN3)c2)cc1-c1cc[n+]([O-])cc1 (centres unmarked) [Co. 66]

IC50 (Hpk1) | IC50 (full-length human Hpk1) | SMILES
1660 nM | 46.8 nM | CN(C)Cc1cc(-c2cnc(N)c(-c3ccnc(N4CCNCC4)c3)c2)ccc1C1CCOCC1 [Co. 67]
4370 nM | 115 nM | Cc1cc(-c2cc(-c3ccc(C4CCOCC4)c(CN(C)C)c3)cnc2N)ccn1 [Co. 70]
2290 nM | 41.7 nM | CN(C)Cc1cc(-c2cnc(N)c(-c3ccnc(NCCCO)c3)c2)ccc1C1CCOCC1 [Co. 75]
1950 nM | 34.7 nM | CN(C)Cc1cc(-c2cnc(N)c(-c3ccccc3)c2)ccc1C1CCOCC1 [Co. 76]
912 nM | 8.13 nM | Nc1ncc(-c2ccc(C3CCOCC3)c([C@@H]3COCCN3)c2)cc1Br [Co. 78]
794 nM | 25.7 nM | C[C@H]1CN[C@H](c2cc(-c3cnc(N)c(Br)c3)ccc2C2CCOCC2)CO1 [Co. 79]
851 nM | 14.5 nM | Nc1ncc(-c2ccc(C3CCOCC3)c([C@@H]3COCCN3)c2)cc1-c1ccncc1 [Co. 80a]
> 10000 nM | 3720 nM | Nc1ncc(-c2ccc(C3CCOCC3)c([C@H]3COCCN3)c2)cc1-c1ccncc1 [Co. 80b]
813 nM | 15.5 nM | Cn1cc(-c2cc(-c3ccc(C4CCOCC4)c([C@@H]4COCCN4)c3)cnc2N)cn1 [Co. 81]
479 nM | 25.1 nM | Cn1cc(-c2nc(-c3ccc(C4CCOCC4)c([C@@H]4COCCN4)c3)cnc2N)cn1 [Co. 84]
1150 nM | 38 nM | Nc1ncc(-c2ccc(C3CCOCC3)c([C@@H]3COCCN3)c2)cc1Cl [Co. 85]
3980 nM | 120 nM | Cc1cc(-c2ccc(C3CCOCC3)c([C@@H]3COCCN3)c2)cnc1N [Co. 86]
4170 nM | 112 nM | Nc1ncc(-c2ccc(C3CCOCC3)c([C@@H]3COCCN3)c2)cc1F [Co. 88]
1230 nM | 35.5 nM | C[C@H]1CN[C@H](c2cc(-c3cnc(N)c(-c4cnn(C)c4)n3)ccc2C2CCOCC2)CO1 [Co. 90]
> 10000 nM | 1950 nM | C[C@@H]1CN[C@@H](c2cc(-c3cnc(N)c(-c4ccnc(F)c4)c3)ccc2C2CCOCC2)CO1 [Co. 92]

Continued, compound first:

SMILES | IC50 (Hpk1) | IC50 (full-length human Hpk1)
Nc1ncc(-c2ccc(C3CCOCC3)c([C@@H]3CCCN3)c2)cc1Br [Co. 37] | 646 nM | 7.24 nM
Cc1cc(-c2cc(-c3ccc(C4CCOCC4)c([C@@H]4CCCN4)c3)cnc2N)on1 [Co. 39] | 275 nM | 2.34 nM
Nc1ncc(-c2ccc(C3CCOCC3)c([C@@H]3CCCN3)c2)nc1-c1ccncc1 [Co. 42] | 2000 nM | 24.5 nM
Nc1ncc(-c2ccc(C3CCOCC3)c([C@@H]3CCCN3)c2)nc1-c1ccnc(F)c1 [Co. 43] | > 10000 nM | 21.4 nM
Nc1ncc(-c2ccc(C3=CCOC3)c([C@@H]3CCCN3)c2)cc1-c1ccnc(F)c1 [Co. 45] | 1120 nM | 41.7 nM
Nc1ncc(-c2ccc(C3=CCS(=O)(=O)CC3)c([C@@H]3CCCN3)c2)cc1-c1ccnc(F)c1 [Co. 49] | 2510 nM | 24 nM
Nc1ncc(-c2ccc(C3CCOCC3)c([C@@H]3CCCN3)c2)cc1C1=CCS(=O)(=O)CC1 [Co. 55] | > 10000 nM | 95.5 nM
Nc1ncc(-c2ccc(C3CCOCC3)c([C@@H]3CCCN3)c2)cc1-c1cc[nH]c(=O)c1 [Co. 57] | > 10000 nM | 26.3 nM
N#Cc1ccc(-c2cnc(N)c(-c3ccnc(F)c3)c2)cc1[C@@H]1CCCN1 [Co. 60] | > 10000 nM | 251 nM
N#Cc1cc(-c2cc(-c3ccc(C4CCOCC4)c([C@@H]4CCCN4)c3)cnc2N)ccn1 [Co. 61] | 3980 nM | 34.7 nM
Nc1ncc(-c2ccc(C3CCOCC3)c([C@@H]3CCCN3)c2)cc1-c1ccnc(C(F)(F)F)c1 [Co. 63] | 5370 nM | 58.9 nM
[2H]c1cc(-c2cc(-c3ccc(C4CCOCC4)c([C@@H]4CCCN4)c3)cnc2N)ccn1 [Co. 64] | 380 nM | 17 nM
[2H]c1cc(-c2cc(-c3ccc(C4CCOCC4)c([C@@H]4CCCN4)c3)cnc2N)cc([2H])n1 [Co. 65] | 1200 nM | 26.9 nM
Cn1cc(-c2cc(-c3ccc(C4CCOCC4)c([C@@H]4CCCN4)c3)cnc2N)cn1 [Co. 68] | 1410 nM | 6.31 nM
COc1cc(-c2cc(-c3ccc(C4CCOCC4)c(CN(C)C)c3)cnc2N)ccn1 [Co. 71] | 2040 nM | 41.7 nM
CN(C)Cc1cc(-c2cnc(N)c(-c3ccncc3F)c2)ccc1C1CCOCC1 [Co. 72] | 2290 nM | 40.7 nM
CN(C)Cc1cc(-c2cnc(N)c(-c3ccncc3)c2)ccc1C1CCOCC1 [Co. 73] | 1550 nM | 42.7 nM
CN(C)Cc1cc(-c2cnc(N)c(-c3ccnc(NCCO)c3)c2)ccc1C1CCOCC1 [Co. 74] | 1860 nM | 56.2 nM
CN(C)Cc1cc(-c2cnc(N)c(-c3ccncn3)c2)ccc1C1CCOCC1 [Co. 77] | 2570 nM | 14.1 nM
Nc1ncc(-c2ccc(C3CCOCC3)c([C@@H]3COCCN3)c2)cc1-c1ccnc(F)c1 [Co. 82] | 126 nM | 8.71 nM
COc1cc(-c2ccc(C3CCOCC3)c([C@@H]3COCCN3)c2)cnc1N [Co. 87] | 1100 nM | 47.9 nM
N#Cc1cc(-c2ccc(C3CCOCC3)c([C@@H]3COCCN3)c2)cnc1N [Co. 89] | 851 nM | 21.4 nM
C[C@H]1CN[C@H](c2cc(-c3cnc(N)c(-c4ccnc(F)c4)c3)ccc2C2CCOCC2)CO1 [Co. 94] | 575 nM | 12.9 nM
Nc1ncc(-c2ccc(C3CCOCC3)c([C@@H]3CCCN3)c2)cc1C1CCOCC1 [Co. 95] | 2240 nM | 43.7 nM
